Measurements taken from article PMC4153677, “Probing the Activity Modification Space of the Cysteine Peptidase Cathepsin K with Novel Allosteric Modifiers” (PLoS ONE, 2014).

Key:
[1] = biological target: T1, Recombinant human cathepsin K (Homo sapiens, UniProt P43235); experiment: Kinetic measurements, hydrolysis of the fluorogenic substrate Z-FR↓AMC (general modifier mechanism); assay type: biochemical; design: key to α (coefficient, effect of modifier on the affinity for the substrate) / β (coefficient, effect of modifier on the catalytic rate): dimensionless coefficients multiplying KS (α) and kcat (β)
T1 construct: made in house
T1 sequence (P43235 115-329): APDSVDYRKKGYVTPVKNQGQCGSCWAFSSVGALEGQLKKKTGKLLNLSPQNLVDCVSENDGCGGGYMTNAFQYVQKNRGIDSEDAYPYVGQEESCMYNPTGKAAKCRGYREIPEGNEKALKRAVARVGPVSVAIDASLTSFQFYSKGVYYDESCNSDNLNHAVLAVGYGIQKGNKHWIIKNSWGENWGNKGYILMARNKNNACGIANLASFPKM
Protocol: All modifiers were tested for their effect on the hydrolysis of the low molecular mass synthetic substrate Z-FR↓AMC. Since all progress curves were linear from the beginning of the reaction, initial velocities were calculated from the slopes by linear regression. […] The basic mechanism considered for the analysis of the interactions was the general modifier mechanism shown in Figure 2, in which the effect of modifier is determined by the values of the coefficients α and β that multiply the kinetic parameters K S, K A (α) and k cat (β). In the thermodynamic box embodied in Figure 2, the reciprocal of the coefficient α represents the allosteric coupling constant that characterizes energy linkage between the modifier and the substrate, while a […] represents the effect exerted by the modifier on catalysis. The specific velocity plot was used for the primary screening of the kinetic behavior of the modifiers (Equation 2), as it allows an immediate judgment of the type of interaction and to gather preliminary estimates of the coefficients α and β, as well as of the dissociation constant of the modifier. Refinement was then performed by fitting the rate Equation 1 to data.
Figure 3 Kinetic mechanisms of the identified modifiers. All compounds were characterized by a combination of specific velocity plots (upper panels) and titration curves recorded at fixed substrate concentrations (lower panels). All experiments were performed at 25±1°C in 100 mM sodium acetate buffer pH 5.50 containing 1 mM EDTA and 2.5 mM DTT using the fluorogenic substrate Z-FR↓AMC and at a final enzyme concentration of 0.5 nM.
All kinetic measurements were performed in 100 mM sodium acetate buffer pH 5.50 containing 1 mM EDTA and 2.5 mM dithiothreitol (DTT) in single-use acrylic cuvettes (1×1 cm) thermostatted at 25±1°C with magnetic stirring. The hydrolysis of Z-FR↓AMC was followed fluorometrically at λex 383 nm and λem 455 nm. All tested modifiers were analyzed spectroscopically to determine their absorption properties under the conditions used in the assays. When necessary, appropriate corrections were made to the calculated reaction rates to take into account the inner filter effect.
The effects of the modifiers on enzymatic activity were analyzed with the general modifier mechanism which describes the interaction between enzyme (E), substrate (S) and modifier (A), as shown in Figure 2. Assuming that binding of A to E and ES is at quasi-equilibrium and that steady-state conditions are established in the fluxes around ES and ESA (i.e. the catalytic steps), the reaction rate for the mechanism in Figure 2 is defined by Equation 1: [drawing 2] (1) where v 0 is the reaction rate in the absence of modifier, K A is the equilibrium dissociation constant of the EA complex, α and β are dimensionless coefficients and σ = [S]/K m, approximated to [S]/K s. To determine the mechanism of interaction, plot the kinetic data and calculate preliminary values of the interaction parameters, the specific velocity plot was used. For this purpose, Equation 1 is rewritten as:
The plot of v 0/v A versus σ/(1+σ) produces straight lines with intersection points at v 0/v A = 1, regardless of the interaction mechanism. The parameters α, β and K A are determined by replotting the extrapolated values of the straight lines at σ/(1+σ) = 0 (a) and σ/(1+σ) = 1 (b) versus 1/[A] in the form: [drawing 4] (3) [drawing 5] (4)

[2] = Solubility in aqueous buffers; assay type: physicochemical; conditions: aqueous buffer, kinetic from dmso stock
Protocol: Recombinant human cathepsin K was prepared as described previously. Chemical probes were obtained from the U.S. NCI/DTP Open Chemical Repository or from ChemBridge (USA). All compounds were soluble in aqueous buffers at concentrations of at least 2 mM, except for compound 2, which was soluble up to a maximal concentration of 1 mM. Stock solutions of all compounds were prepared in DMSO. The fluorogenic substrate Z-FR↓AMC (benzyloxycarbonyl-Phe-Arg-7-amino-4-methylcoumarin) was from Bachem (Switzerland).

[3] = biological target: T1, Recombinant human cathepsin K; experiment: Thermal stability of cathepsin K at pH 7.4 in the presence of modifiers; assay type: biochemical
Protocol: Cathepsin K was incubated at 37°C in 50 mM Hepes buffer pH 7.40 containing 1 mM EDTA and 5 mM DTT in the presence or absence of each modifier. The final enzyme concentration was 0.2 µM and final compounds concentrations were 2 mM, except compound 2, which was used at a concentration of 1 mM. All experiments were performed in Eppendorf Protein LoBind Tubes to minimize the adsorption of proteins on tube walls. Aliquots were withdrawn from the reaction mixtures at regular time intervals and their residual activity measured using the substrate Z-FR↓AMC (5 µM final concentration). Inactivation curves had exponential profiles that were fitted with the mathematical model for one-phase exponential decay to determine the half-life of the enzyme in each reaction mixture.

[4] = biological target: T1, Recombinant human cathepsin K; experiment: Azocasein degradation assays; assay type: biochemical; conditions: pH 5.5; substrate azocasein 3 mg/ml; 0.1 µM cathepsin K, 30 min 37°C, pH 5.50; compounds up to 2 mM (compound 2: 1 mM); read-out: Residual activity
Excerpt: Figure 4 Effect of modifiers on the degradation of macromolecular substrates. (A) Effect of increasing concentrations of compounds 1 and 2 on the degradation of calf skin collagen. Molecular mass standards are given in kDa and positions of α, β and γ chains of intact collagen are marked by arrows. (B) Effect of modifiers on azocasein degradation. (C) Effect of glycosaminoglycans and clusterin on azocasein degradation. Two different concentrations of each glycosaminoglycan were used in the experiments (10 µg/ml and 200 µg/ml). Error bars in panels B and C represent the SEM of three experiments. All experiments were performed in 100 mM sodium acetate buffer pH 5.50 containing 1 mM EDTA and 5 mM DTT, as described in detail in the Materials and Methods section. Abbreviations: CPD – compound, CS – chondroitin sulfate, DS – dermatan sulfate, HP – heparin.
Azocasein (Sigma-Aldrich, USA) was dissolved in 100 mM sodium acetate buffer pH 5.50 containing 1 mM EDTA and 5 mM DTT at a concentration of 3 mg/ml. Samples were incubated with 0.1 µM cathepsin K for 30 min at 37°C in the presence of each compound. […] Reactions were stopped by addition of trichloroacetic acid (final concentration 5% v/v), centrifuged, clear supernatants mixed with 0.5 M NaOH and the concentrations of solubilized peptides determined by measuring the absorbance at 440 nm. All experiments were performed in triplicates and appropriate blanks were run to take into account the absorption of azocasein and compounds alone. IC 50 values were determined as described previously.

For OC(c1cc(-c2ccc(C(F)(F)F)cc2)nc(C(F)(F)F)c1)C1CCCCN1 (stereo not shown) [Compound 2, Piperidin-2-yl-[2-(trifluoromethyl)-6-[4-(trifluoromethyl)phenyl]pyridin-4-yl] methanol], the “Z-FRAMC: geometric mean of residual activities (vA)” value ([1]; at 0.1×Km and 10×Km substrate, modifier 10×KA, calculated with Equation 1 from α and β of Table 3, unmodified enzyme = 1.00) was 0.42, the “β (coefficient, effect of modifier on the catalytic rate)” value ([1]; substrate Z-FR↓AMC, pH 5.50, 25°C, 0.5 nM enzyme) was 0.74±0.13 and the Kd ([1]; substrate Z-FR↓AMC, pH 5.50, 25°C, 0.5 nM enzyme, read-out: K A (equilibrium dissociation constant of the EA complex)) was 150 ± 50 µM. For the same compound, the solubility [2] was ≤ 1000 µM, the “stability: ln(sf), sf = ratio of half-lives in the presence and absence of modifier” value ([3]; 37 °C and pH 7.4) was 0.79 and the “Increase of stability (half-life) of cathepsin K” value ([3]; pH 7.4, 37°C, versus enzyme only) was “about 2 fold”. For the same compound, the remaining activity [4] was 93 ± 7%.
